Results reported in ChEMBL document CHEMBL5209587, “Membrane potential based assay for SLC23A1 using HEK-293 SLC23A1 OE cells” (2022).

Molecular target: Solute carrier family 23 member 1 (Homo sapiens) (UniProt Q9UHI7)
Experiment: Substrate uptake and inhibition of the Na(+)/L-Ascorbic Acid Transporter 1 (SVCT1, SLC23A1) as assessed by the fluorescent FLIPR membrane potential dye in HEK-293 JumpIN-SLC23A1 cells (PubChem AID: 1794810)
Type: functional, cell-based
Settings: HEK293

Sequence of Solute carrier family 23 member 1 (Homo sapiens) (Q9UHI7 whole entry): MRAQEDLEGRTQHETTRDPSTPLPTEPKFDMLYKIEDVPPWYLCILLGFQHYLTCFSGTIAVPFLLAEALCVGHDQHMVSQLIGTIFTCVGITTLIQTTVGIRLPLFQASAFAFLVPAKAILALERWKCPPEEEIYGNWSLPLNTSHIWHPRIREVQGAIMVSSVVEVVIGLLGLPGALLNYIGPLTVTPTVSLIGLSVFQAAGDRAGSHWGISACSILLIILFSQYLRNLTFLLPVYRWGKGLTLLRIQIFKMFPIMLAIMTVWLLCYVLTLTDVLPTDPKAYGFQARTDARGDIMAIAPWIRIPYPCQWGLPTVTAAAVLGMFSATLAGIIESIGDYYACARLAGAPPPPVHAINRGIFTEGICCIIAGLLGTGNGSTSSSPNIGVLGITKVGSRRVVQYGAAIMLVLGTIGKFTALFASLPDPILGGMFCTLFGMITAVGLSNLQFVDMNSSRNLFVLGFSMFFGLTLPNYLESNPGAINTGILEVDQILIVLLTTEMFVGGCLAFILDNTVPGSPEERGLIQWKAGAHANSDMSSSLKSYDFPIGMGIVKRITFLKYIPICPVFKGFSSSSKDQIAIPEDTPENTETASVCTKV

With `O=C(CCc1ccc(O)cc1)c1c(O)cc(O)cc1O` the inhibition was “Inhibitor: Almost Complete Inhibition At A Concentration Of 300 Μm”.
